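96-well plates; 48 h exposure; 5 concentrations. Endpoints by linear interpolation between flanking doses. Not reached: highest tested concentration assigned. Abbreviation: GI50, concentration required for 50% inhibition of growth. TGI is the concentration that stops growth completely.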

For 8 molecules, GI50 and TGI results are on record in PubChem BioAssay (NCI).

Some test systems named below: A498 renal; ACHN renal; CCRF-CEM leukemia; HCT-15 colon; HT29 colon; MDA-MB-435; NCI/ADR-RES ovarian; T-47D breast; U251 CNS; UACC-257 melanoma.
What all share (assay): inhibition of tumour cell growth, NCI panel, 48 h

Turning to `CSC1=Nc2c(c(C)c(-c3ccccc3)n2COC(CO)CO)C2=NC(=O)CN12`, the GI50 is over 100 µM with A498 renal; over 100 µM in the experiment on ACHN renal; over 100000 nM in the experiment on CCRF-CEM leukemia; over 100000 nM with HCT-15 colon; over 100 µM in the experiment with HT29 colon; over 100 µM in the experiment with MDA-MB-435. Moreover, the GI50 in the experiment on NCI/ADR-RES ovarian was over 100 µM; with T-47D breast, over 100000 nM; with U251 CNS, over 100000 nM; in the experiment with UACC-257 melanoma, over 100 µM. Moreover, the TGI with A498 renal, in the experiment with ACHN renal, with CCRF-CEM leukemia, in the experiment with HCT-15 colon, in the experiment on HT29 colon and in the experiment with MDA-MB-435 was over 100 µM in each case. In addition, the TGI in the experiment on NCI/ADR-RES ovarian, in the experiment on T-47D breast, in the experiment on U251 CNS and in the experiment with UACC-257 melanoma was over 100 µM each time.

In the case of `COc1ccc(-c2[nH]c3ccccc3c2/C=C(\C#N)S(=O)(=O)c2ccccc2)cc1`, the GI50 with A498 renal was 1.14 µM; with ACHN renal it was 1.91 µM; with CCRF-CEM leukemia, 807 nM; in the experiment on HCT-15 colon, 552 nM; in the experiment with HT29 colon it was 0.309 µM; with MDA-MB-435 it was 0.204 µM. For the same molecule, the GI50 is 0.427 µM with NCI/ADR-RES ovarian, 530 nM with T-47D breast, 462 nM in the experiment with U251 CNS and 10.7 µM in the experiment with UACC-257 melanoma. For the same molecule, the TGI in the experiment on A498 renal is over 28.6 µM; with ACHN renal, over 100 µM; in the experiment with HCT-15 colon, over 48 µM; with MDA-MB-435 it was 0.642 µM; with NCI/ADR-RES ovarian, over 25.8 µM; with T-47D breast, 6.15 µM. Moreover, the TGI was over 29.4 µM in the experiment on U251 CNS and over 100 µM in the experiment on UACC-257 melanoma.

As for `COc1cc(-c2ncn(/C=C\c3nnco3)n2)cc(C(F)(F)F)c1`, the GI50 in the experiment with A498 renal was 0.0421 µM; in the experiment on ACHN renal, 0.318 µM; with CCRF-CEM leukemia, 194 nM; with HCT-15 colon, 282 nM; with HT29 colon, 0.191 µM; in the experiment on MDA-MB-435, 0.0894 µM. Further, the GI50 in the experiment with NCI/ADR-RES ovarian is 0.2 µM; with T-47D breast, 571 nM; in the experiment with U251 CNS it was 66.1 nM; in the experiment with UACC-257 melanoma it was 0.368 µM. Also, the TGI was 0.619 µM with A498 renal; over 100 µM in the experiment with ACHN renal; over 100 µM with CCRF-CEM leukemia; over 100 µM in the experiment on HCT-15 colon; 50.8 µM with HT29 colon; 3.33 µM in the experiment on MDA-MB-435. Besides, the TGI in the experiment with NCI/ADR-RES ovarian is over 100 µM; in the experiment on T-47D breast, over 59.9 µM; in the experiment on U251 CNS, 17.6 µM; in the experiment with UACC-257 melanoma, over 52.5 µM.

`CN1C(=NCCO)NS(=O)(=O)c2ccccc21`: the TGI with A498 renal, with ACHN renal, in the experiment on CCRF-CEM leukemia, in the experiment with HCT-15 colon, in the experiment on HT29 colon and in the experiment on MDA-MB-435 was over 100 µM throughout. The TGI with NCI/ADR-RES ovarian, with T-47D breast, in the experiment with U251 CNS and in the experiment with UACC-257 melanoma was over 100 µM each time.

With `CN1CCCC1c1cccnc1.O=C(O)c1ccccc1O.O=C([O-])c1ccccc1[OH2+].O=C([O-])c1ccccc1[OH2+].[Mn+2]` (stereo not drawn), the GI50 is over 100 µM with A498 renal; over 100 µM in the experiment on ACHN renal; 24800 nM with CCRF-CEM leukemia; over 100000 nM in the experiment with HCT-15 colon; 98 µM with HT29 colon; over 100 µM with MDA-MB-435. Also, the GI50 is over 100 µM with NCI/ADR-RES ovarian, over 100000 nM with T-47D breast, over 100000 nM in the experiment on U251 CNS and 56.7 µM in the experiment on UACC-257 melanoma. Besides, the TGI was over 100 µM with A498 renal; over 100 µM in the experiment on ACHN renal; 97.8 µM in the experiment with CCRF-CEM leukemia; over 100 µM with HCT-15 colon; over 100 µM in the experiment on HT29 colon; over 100 µM in the experiment with MDA-MB-435. Besides, the TGI in the experiment on NCI/ADR-RES ovarian, with T-47D breast, in the experiment on U251 CNS and in the experiment with UACC-257 melanoma was over 100 µM each time.

In the case of `COc1ccc2c(c1)C(=O)c1c-2c(=O)n(CCCN(C)C)c2cc(OC)c(OC)cc12`, the GI50 in the experiment on A498 renal was 15 µM; with ACHN renal it was 2.76 µM; in the experiment on CCRF-CEM leukemia, 50 nM; in the experiment on HCT-15 colon, 12600 nM; with HT29 colon, 3.69 µM; with MDA-MB-435 it was 11.3 µM. Further, the GI50 in the experiment on NCI/ADR-RES ovarian is 5.93 µM; in the experiment with T-47D breast it was over 100000 nM; in the experiment on U251 CNS, 1230 nM; in the experiment with UACC-257 melanoma it was 16.9 µM. The TGI was over 100 µM in the experiment on A498 renal; 14.4 µM in the experiment with ACHN renal; 12.2 µM with CCRF-CEM leukemia; 27.4 µM in the experiment on HCT-15 colon; 19.1 µM with HT29 colon; 23.3 µM in the experiment on MDA-MB-435. The TGI is 23.6 µM in the experiment with NCI/ADR-RES ovarian, over 100 µM with T-47D breast, 18.9 µM in the experiment with U251 CNS and 33 µM in the experiment with UACC-257 melanoma.

Turning to `c1ccc(C2CCCCC2)c(OCCCCCN2CCNCC2)c1`, the GI50 was 4.54 µM with A498 renal; 3.45 µM in the experiment on ACHN renal; 2400 nM in the experiment with CCRF-CEM leukemia; 1830 nM with HCT-15 colon; 1.6 µM in the experiment on HT29 colon; 1.69 µM in the experiment with MDA-MB-435. Also, the GI50 in the experiment on NCI/ADR-RES ovarian is 7.07 µM; with T-47D breast, 1920 nM; with U251 CNS it was 1820 nM; with UACC-257 melanoma, 2.35 µM. Moreover, the TGI with A498 renal is 20.7 µM; in the experiment on ACHN renal, 13.2 µM; in the experiment on CCRF-CEM leukemia, 7.9 µM; in the experiment with HCT-15 colon, 4.05 µM; in the experiment on HT29 colon, 4.9 µM; with MDA-MB-435, 3.3 µM. Further, the TGI was found to be 29.2 µM with NCI/ADR-RES ovarian, 5.16 µM with T-47D breast, 4.2 µM with U251 CNS and 4.92 µM with UACC-257 melanoma.

As to `c1ccc2c(CNCCN3CCNCC3)c3ccccc3c(CNCCN3CCNCC3)c2c1`, the GI50 in the experiment on A498 renal was 18.3 µM; in the experiment with ACHN renal, 31.2 µM; in the experiment on CCRF-CEM leukemia it was 2300 nM; in the experiment on HCT-15 colon, over 100000 nM; in the experiment with HT29 colon, 29.2 µM; in the experiment on MDA-MB-435 it was 11.7 µM. Further, the GI50 in the experiment on NCI/ADR-RES ovarian was over 100 µM; in the experiment with T-47D breast, 19900 nM; in the experiment with U251 CNS it was 14800 nM; with UACC-257 melanoma it was 62 µM. Besides, the TGI in the experiment on A498 renal was 60.7 µM; in the experiment with ACHN renal, over 100 µM; with CCRF-CEM leukemia it was 14.2 µM; with HCT-15 colon, over 100 µM; with HT29 colon it was over 100 µM; in the experiment on MDA-MB-435, 27.2 µM. For the same molecule, the TGI in the experiment with NCI/ADR-RES ovarian is over 100 µM; with T-47D breast, 81.9 µM; in the experiment on U251 CNS, 40.3 µM; with UACC-257 melanoma, over 100 µM.
